In the oligonucleotide strings, read from the 5' end, every base follows the letter of its sugar. An asterisk marks phosphorothioate; unmarked linkages are phosphodiester. Other units and linkages are bracketed, terminal groups are in braces. A string of capitals states the bases alone. e = 2'-O-(2-methoxyethyl) (MOE); [5mC] = 5-methylcytosine; d = 2'-deoxy (DNA)
Legend:
T47D cells = test: Cell cycle assay in T47D cells; assay type: cell-based, human; conditions: 150 nM, 48 hours, relative to untreated control
BJ cells = test: Cell cycle assay in BJ cells; assay type: cell-based, human; conditions: 200 nM, 48 hours, relative to untreated control
[1] = system: 3′-UTR of the LIM domain only 4 (LMO4) gene; test: pGL3-LMO4 luciferase assay in HeLa cells; assay type: cell-based, human; conditions: 48 hours
Text: In one embodiment, an expression system based on the pGL3-Control (Promega Corp., Madison Wis.) vector containing a CMV promoter controlling expression of a luciferase reporter sequence was used in transient transfections of HeLa cells with plasmids expressing miRNA or pri-miRNA mimics. To assess the ability of miRNA mimics to bind and regulate the expression of the luciferase reporter gene, two reporter plasmids were constructed: 1) a synthetic DNA fragment comprising two sites perfectly complementary to mir-143 were inserted into the pGL3-Control luciferase reporter vector, to create the pGL3-mir-143 sensor plasmid, and 2) a DNA fragment comprising the 3′-UTR of the LIM domain only 4 (LMO4) gene (predicted to be regulated by mir-143) was inserted into pGL3-Control to create pGL3-LMO4; this fragment was PCR-amplified using a primer beginning at position 1261 of the LMO4 sequence (GenBank Accession NM_006769.2, incorporated herein as SEQ ID: 809) and the downstream primer hybridizing to the poly-A tail. In each of these plasmids, the target site was placed downstream of the luciferase coding sequence and upstream of the polyadenylation signal in the 3′-UTR of the luciferase reporter vector. The unmodified pGL3-Control luciferase reporter vector was used as a control.
HeLa cells were routinely cultured and passaged as described, and on the day before transfection with expression or reporter plasmids, the HeLa cells were seeded onto 24-well plates 50,000 cells/well. Cells were transfected according to standard published procedures with various combinations of plasmids using 2 μg Lipofectamine™ 2000 Reagent (Invitrogen) per μg of plasmid DNA, or, when transfecting oligomeric compounds, 1.25 μg of Lipofectamine™ 2000 Reagent per 100 nM oligonucleotide or double-stranded RNA. The luciferase signal in each well was normalized to the Renilla luciferase (RL) activity produced from a co-transfected plasmid, pRL-CMV, which was transfected at 0.5 μg per well. […]

mir-143 binding sites = test: pGL3-mir-143 sensor luciferase assay in HeLa cells; assay type: cell-based, human; conditions: Table 41, pGL3-mir-143 sensor, 24 hours
[2] = system: BJ, B16-F10, T47D, T47Dp53 and HeLa cells; test: Cell cycle assay (propidium iodide flow cytometry), cell line panel; assay type: cell-based; conditions: 150 nM, 72 hours (Table 29)

## 328403 (antisense eA*eG*eG*e[5mC]*e[5mC]*dT*dA*dT*dT*d[5mC]*d[5mC]*dT*dG*dT*dA*eG*e[5mC]*eA*eA*eA) [compound 328403]
T47D cells
  % cells in cell cycle phase G1: 104%
  % cells in cell cycle phase G2/M: 89%
  % cells in cell cycle phase S: 112%
  % cells in cell cycle phase aneuploid: 175%
  % cells in cell cycle phase subG1: 49%
BJ cells
  % cells in cell cycle phase G1: 102%
  % cells in cell cycle phase G2/M: 92%
  % cells in cell cycle phase S: 95%
  % cells in cell cycle phase aneuploid: 114%
  % cells in cell cycle phase subG1: 81%

## ds-mir-143: double-stranded RNA of ISIS 342199 hybridized to its perfect complement ISIS 342200 (sense UGAGAUGAAGCACUGUAGCUCA; antisense UGAGCUACAGUGCUUCAUCUCA; RNA, backbone not given here)
[1]; 4 nM
  luciferase expression (% lucif. only control): 151.6 % lucif. only control
[1]; 20 nM
  luciferase expression (% lucif. only control): 140.1 % lucif. only control
[1]; 100 nM
  luciferase expression (% lucif. only control): 128.4 % lucif. only control
mir-143 binding sites; 11 nM
  luciferase expression: 15.0 percent untreated control
mir-143 binding sites; 33 nM
  luciferase expression: 15.0 percent untreated control
mir-143 binding sites; 100 nM
  luciferase expression: 11.1 percent untreated control

## CTAGTGGTCCTAAACATTTCAC (chemistry not given here) [ISIS 327878, uniform 2′-MOE PS; targets mir-203]
[2]
  percentage of cells in the G2/M phase: increased percentage of cells in the G2/M phase
  percentage of cells with hypodiploid DNA content (subG1): increased percentage of cells with hypodiploid DNA content

— patent publication US8178506B2, “Oligomeric compounds and compositions for use in modulation of small non-coding RNAs” (Regulus Therapeutics Inc., priority 2003, dated 2012)
